Assay results from US20020137929A1, “1 - (3-heterocyclylphenyl) isothiourea, -isourea, -guanidine and -amidine herbicidal agents” (Intellectual Property Department, BASF Aktiengesellschaft, priority 1998, published 2002).

Legend:
CASOB (Sicklepod) = test: Postemergence herbicidal evaluation; assay type: in vivo, Cassia obtusifolia
In short: (§1)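 Each compound, dispersed in an acetone/water mix (50/50) carrying 0.5% TWEEN 20, is nozzle-sprayed at 40 psi on approximately two-week-old seedlings at about 0.0156–0.500 kg/ha. Plants are assessed 4–5 weeks afterward on a 0–9 scale relative to control; duplicate tests are averaged.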

[1] = system: CHEAL (Lambsquarters, Common); test: Postemergence herbicidal evaluation; assay type: in vivo, Chenopodium album
In short: as §1

GALAP (Galium) = test: Postemergence herbicidal evaluation; assay type: in vivo, Galium aparine
In short: as §1

ORYSAT (Rice, Tebonnet) [2] = test: Postemergence herbicidal evaluation; assay type: in vivo, Oryza sativa, (L.) Tebonnet
In short: as §1

ZEAMX (Corn, Field) = test: Postemergence herbicidal evaluation; assay type: in vivo, Zea mays
In short: as §1

AMBEL (Ragweed, Common) = test: Preemergence herbicidal evaluation; assay type: in vivo, Ambrosia artemisifolia; conditions: rated 4-5 weeks after treatment
In short: (§2)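 Steps: mix seeds into potting soil; plant atop ~1 inch soil; spray compound in aqueous acetone (~0.0156-0.500 kg/ha equivalent); maintain in greenhouse with watering; rate visually 0-9 versus control at 4-5 weeks.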

SETVI (Foxtail, Green) = test: Preemergence herbicidal evaluation; assay type: in vivo, Setaria viridis; conditions: rated 4-5 weeks after treatment
In short: as §2

[3] = system: GLXMAW (Soybean, Williams); test: Preemergence herbicidal evaluation; assay type: in vivo, Glycine max, (L.) Merr. cv Williams; conditions: rated 4-5 weeks after treatment
In short: as §2

ORYSAT (Rice, Tebonnet) [4] = test: Preemergence herbicidal evaluation; assay type: in vivo, Oryza sativa, (L.) Tebonnet; conditions: rated 4-5 weeks after treatment
In short: as §2

CYPSE (Flatsedge) [5] = test: Preemergence weed control under flooded paddy conditions; assay type: in vivo, Cyperus serotinus; conditions: rated 3-4 weeks after treatment
In short: (§3)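 Flooded-pot preemergence screen with silt loam and seeds in the upper 0.5 cm. Dose about 0.0313 to 0.500 kg/ha, delivered into flood water; visual 0-9 score after 3 to 4 weeks.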

MOOVA (Monochoria) = test: as above; assay type: in vivo, Monochoria vaginalis; conditions: rated 3-4 weeks after treatment
In short: as §3

CYPIR (Rice Flatsedge) = test: Postemergence weed control under flooded paddy conditions; assay type: in vivo, Cyperus iria; conditions: postemergence weeds, 3-4 weeks after treatment
In short: (§4)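 Flood-water application, about 0.0313–0.500 kg/ha a.i. in aqueous/acetone 50/50 v/v; water depth 1.5–3 cm throughout. Weeds 3–5 cm, rice 1.5–2.5 leaf. Greenhouse; 0–9 visual rating vs control at 3–4 wk.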

CYPSE (Flatsedge) [6] = test: as above; assay type: in vivo, Cyperus serotinus; conditions: postemergence weeds, 3-4 weeks after treatment
In short: as §4

[7] = system: SAGPY (Arrowhead (Pygmaea)); test: as above; assay type: in vivo, Sagittaria pygmaea; conditions: postemergence weeds, 3-4 weeks after treatment
In short: as §4

SMILES: CCOC(=O)CN1C(=O)CSC1=Nc1cc(N2C(=O)C3=C(CCCC3)C2=O)c(F)cc1Cl [Compound 47, Ethyl 2-{[2-chloro-5-(1-cyclohexene-1,2-dicarboximido)-4-fluorophenyl]imino}-4-oxo-3-thiazolidineacetate]
- Postemergence herbicidal rating CASOB (CASOB (Sicklepod); Rate 0.0156 kg/ha): 0.0
- Postemergence herbicidal rating CASOB (CASOB (Sicklepod); Rate 0.0313 kg/ha): 2.0
- Postemergence herbicidal rating CASOB (CASOB (Sicklepod); Rate 0.0625 kg/ha): 2.0
- Postemergence herbicidal rating CHEAL ([1]; Rate 0.0156 kg/ha): 3.0
- Postemergence herbicidal rating CHEAL ([1]; Rate 0.0313 kg/ha): 4.0
- Postemergence herbicidal rating GALAP (GALAP (Galium); Rate 0.0156 kg/ha): 0.0
- Postemergence herbicidal rating GALAP (GALAP (Galium); Rate 0.0313 kg/ha): 3.0
- Postemergence herbicidal rating GALAP (GALAP (Galium); Rate 0.0625 kg/ha): 3.0
- Postemergence herbicidal rating ORYSAT (ORYSAT (Rice, Tebonnet) [2]; Rate 0.0156 kg/ha): 0.5
- Postemergence herbicidal rating ORYSAT (ORYSAT (Rice, Tebonnet) [2]; Rate 0.0313 kg/ha): 1.5
- Postemergence herbicidal rating ORYSAT (ORYSAT (Rice, Tebonnet) [2]; Rate 0.0625 kg/ha): 3.0
- Postemergence herbicidal rating ZEAMX (ZEAMX (Corn, Field); Rate 0.0156 kg/ha): 5.0
- Postemergence herbicidal rating ZEAMX (ZEAMX (Corn, Field); Rate 0.0313 kg/ha): 7.0
- Postemergence herbicidal rating ZEAMX (ZEAMX (Corn, Field); Rate 0.0625 kg/ha): 7.5
- Preemergence herbicidal rating AMBEL (AMBEL (Ragweed, Common); rate 0.0156 kg/ha): 0.0
- Preemergence herbicidal rating AMBEL (AMBEL (Ragweed, Common); rate 0.0313 kg/ha): 0.0
- Preemergence herbicidal rating AMBEL (AMBEL (Ragweed, Common); rate 0.0625 kg/ha): 0.0
- Preemergence herbicidal rating AMBEL (AMBEL (Ragweed, Common); rate 0.1250 kg/ha): 0.0
- Preemergence herbicidal rating AMBEL (AMBEL (Ragweed, Common); rate 0.2500 kg/ha): 0.0
- Preemergence herbicidal rating SETVI (SETVI (Foxtail, Green); rate 0.0156 kg/ha): 0.0
- Preemergence herbicidal rating SETVI (SETVI (Foxtail, Green); rate 0.0313 kg/ha): 0.0
- Preemergence herbicidal rating SETVI (SETVI (Foxtail, Green); rate 0.0625 kg/ha): 0.0
- Preemergence herbicidal rating SETVI (SETVI (Foxtail, Green); rate 0.1250 kg/ha): 0.0
- Preemergence herbicidal rating SETVI (SETVI (Foxtail, Green); rate 0.2500 kg/ha): 4.0
- Preemergence herbicidal rating GLXMAW ([3]; rate 0.0156 kg/ha): 0.0
- Preemergence herbicidal rating GLXMAW ([3]; rate 0.0313 kg/ha): 0.0
- Preemergence herbicidal rating GLXMAW ([3]; rate 0.0625 kg/ha): 0.0
- Preemergence herbicidal rating GLXMAW ([3]; rate 0.1250 kg/ha): 0.0
- Preemergence herbicidal rating GLXMAW ([3]; rate 0.2500 kg/ha): 0.0
- Preemergence herbicidal rating ORYSAT (ORYSAT (Rice, Tebonnet) [4]; rate 0.0156 kg/ha): 0.0
- Preemergence herbicidal rating ORYSAT (ORYSAT (Rice, Tebonnet) [4]; rate 0.0313 kg/ha): 0.0
- Preemergence herbicidal rating ORYSAT (ORYSAT (Rice, Tebonnet) [4]; rate 0.0625 kg/ha): 0.0
- Preemergence herbicidal rating ORYSAT (ORYSAT (Rice, Tebonnet) [4]; rate 0.1250 kg/ha): 0.0
- Preemergence herbicidal rating ORYSAT (ORYSAT (Rice, Tebonnet) [4]; rate 0.2500 kg/ha): 0.0
- Herbicidal rating CYPSE (CYPSE (Flatsedge) [5]; 0.0313 kg/ha): 0.0
- Herbicidal rating CYPSE (CYPSE (Flatsedge) [5]; 0.0625 kg/ha): 0.0
- Herbicidal rating CYPSE (CYPSE (Flatsedge) [5]; 0.1250 kg/ha): 0.0
- Herbicidal rating CYPSE (CYPSE (Flatsedge) [5]; 0.2500 kg/ha): 0.0
- Herbicidal rating MOOVA (MOOVA (Monochoria); 0.0313 kg/ha): 5.0
- Herbicidal rating MOOVA (MOOVA (Monochoria); 0.0625 kg/ha): 6.0
- Herbicidal rating MOOVA (MOOVA (Monochoria); 0.1250 kg/ha): 9.0
- Herbicidal rating MOOVA (MOOVA (Monochoria); 0.2500 kg/ha): 9.0
- Herbicidal rating CYPIR (CYPIR (Rice Flatsedge); rate 0.0313 kg/ha): 0.0
- Herbicidal rating CYPIR (CYPIR (Rice Flatsedge); rate 0.0625 kg/ha): 0.0
- Herbicidal rating CYPIR (CYPIR (Rice Flatsedge); rate 0.1250 kg/ha): 4.0
- Herbicidal rating CYPIR (CYPIR (Rice Flatsedge); rate 0.2500 kg/ha): 6.0
- Herbicidal rating CYPSE (CYPSE (Flatsedge) [6]; rate 0.0313 kg/ha): 0.0
- Herbicidal rating CYPSE (CYPSE (Flatsedge) [6]; rate 0.0625 kg/ha): 0.0
- Herbicidal rating CYPSE (CYPSE (Flatsedge) [6]; rate 0.1250 kg/ha): 0.0
- Herbicidal rating CYPSE (CYPSE (Flatsedge) [6]; rate 0.2500 kg/ha): 0.0
- Herbicidal rating SAGPY ([7]; rate 0.0313 kg/ha): 0.0
- Herbicidal rating SAGPY ([7]; rate 0.0625 kg/ha): 0.0
- Herbicidal rating SAGPY ([7]; rate 0.1250 kg/ha): 4.0
- Herbicidal rating SAGPY ([7]; rate 0.2500 kg/ha): 7.0

SMILES: O=C(O)CC1SC(=Nc2cc(N3C(=O)C4=C(CCCC4)C3=O)c(F)cc2Cl)N(CC(=O)O)C1=O (stereo not drawn) [Compound 48, 2-{[2-Chloro-5-(1-cyclohexene-1,2-dicarboximido)-4-fluorophenyl]imino}-4-oxo-3,5-thiazolidinediacetic acid]
- Postemergence herbicidal rating CASOB (CASOB (Sicklepod); Rate 0.0156 kg/ha): 0.0
- Postemergence herbicidal rating CASOB (CASOB (Sicklepod); Rate 0.0313 kg/ha): 2.0
- Postemergence herbicidal rating CASOB (CASOB (Sicklepod); Rate 0.0625 kg/ha): 3.0
- Postemergence herbicidal rating CHEAL ([1]; Rate 0.0156 kg/ha): 3.0
- Postemergence herbicidal rating CHEAL ([1]; Rate 0.0313 kg/ha): 4.0
- Postemergence herbicidal rating CHEAL ([1]; Rate 0.0625 kg/ha): 4.0
- Postemergence herbicidal rating GALAP (GALAP (Galium); Rate 0.0156 kg/ha): 0.0
- Postemergence herbicidal rating GALAP (GALAP (Galium); Rate 0.0313 kg/ha): 0.0
- Postemergence herbicidal rating GALAP (GALAP (Galium); Rate 0.0625 kg/ha): 0.0
- Postemergence herbicidal rating ORYSAT (ORYSAT (Rice, Tebonnet) [2]; Rate 0.0156 kg/ha): 0.5
- Postemergence herbicidal rating ORYSAT (ORYSAT (Rice, Tebonnet) [2]; Rate 0.0313 kg/ha): 0.5
- Postemergence herbicidal rating ORYSAT (ORYSAT (Rice, Tebonnet) [2]; Rate 0.0625 kg/ha): 2.0
- Postemergence herbicidal rating ZEAMX (ZEAMX (Corn, Field); Rate 0.0156 kg/ha): 5.5
- Postemergence herbicidal rating ZEAMX (ZEAMX (Corn, Field); Rate 0.0313 kg/ha): 5.5
- Postemergence herbicidal rating ZEAMX (ZEAMX (Corn, Field); Rate 0.0625 kg/ha): 6.5
- Preemergence herbicidal rating AMBEL (AMBEL (Ragweed, Common); rate 0.0156 kg/ha): 0.0
- Preemergence herbicidal rating AMBEL (AMBEL (Ragweed, Common); rate 0.0313 kg/ha): 0.0
- Preemergence herbicidal rating AMBEL (AMBEL (Ragweed, Common); rate 0.0625 kg/ha): 0.0
- Preemergence herbicidal rating AMBEL (AMBEL (Ragweed, Common); rate 0.1250 kg/ha): 0.0
- Preemergence herbicidal rating AMBEL (AMBEL (Ragweed, Common); rate 0.2500 kg/ha): 4.0
- Preemergence herbicidal rating SETVI (SETVI (Foxtail, Green); rate 0.0156 kg/ha): 0.0
- Preemergence herbicidal rating SETVI (SETVI (Foxtail, Green); rate 0.0313 kg/ha): 0.0
- Preemergence herbicidal rating SETVI (SETVI (Foxtail, Green); rate 0.0625 kg/ha): 0.0
- Preemergence herbicidal rating SETVI (SETVI (Foxtail, Green); rate 0.1250 kg/ha): 0.0
- Preemergence herbicidal rating SETVI (SETVI (Foxtail, Green); rate 0.2500 kg/ha): 0.0
- Preemergence herbicidal rating GLXMAW ([3]; rate 0.0156 kg/ha): 0.0
- Preemergence herbicidal rating GLXMAW ([3]; rate 0.0313 kg/ha): 0.0
- Preemergence herbicidal rating GLXMAW ([3]; rate 0.0625 kg/ha): 0.0
- Preemergence herbicidal rating GLXMAW ([3]; rate 0.1250 kg/ha): 0.0
- Preemergence herbicidal rating GLXMAW ([3]; rate 0.2500 kg/ha): 2.0
- Preemergence herbicidal rating ORYSAT (ORYSAT (Rice, Tebonnet) [4]; rate 0.0156 kg/ha): 0.0
- Preemergence herbicidal rating ORYSAT (ORYSAT (Rice, Tebonnet) [4]; rate 0.0313 kg/ha): 0.0
- Preemergence herbicidal rating ORYSAT (ORYSAT (Rice, Tebonnet) [4]; rate 0.0625 kg/ha): 0.0
- Preemergence herbicidal rating ORYSAT (ORYSAT (Rice, Tebonnet) [4]; rate 0.1250 kg/ha): 0.0
- Preemergence herbicidal rating ORYSAT (ORYSAT (Rice, Tebonnet) [4]; rate 0.2500 kg/ha): 3.0
- Herbicidal rating CYPSE (CYPSE (Flatsedge) [5]; 0.1250 kg/ha): 0.0
- Herbicidal rating CYPSE (CYPSE (Flatsedge) [5]; 0.2500 kg/ha): 0.0
- Herbicidal rating MOOVA (MOOVA (Monochoria); 0.1250 kg/ha): 3.0
- Herbicidal rating MOOVA (MOOVA (Monochoria); 0.2500 kg/ha): 6.0
- Herbicidal rating CYPIR (CYPIR (Rice Flatsedge); rate 0.1250 kg/ha): 2.0
- Herbicidal rating CYPIR (CYPIR (Rice Flatsedge); rate 0.2500 kg/ha): 5.0
- Herbicidal rating CYPSE (CYPSE (Flatsedge) [6]; rate 0.1250 kg/ha): 0.0
- Herbicidal rating CYPSE (CYPSE (Flatsedge) [6]; rate 0.2500 kg/ha): 0.0
- Herbicidal rating SAGPY ([7]; rate 0.1250 kg/ha): 3.0
- Herbicidal rating SAGPY ([7]; rate 0.2500 kg/ha): 6.0
